Assay results taken from patent publication US20260078121A1, “INHIBITORS OF ENL/AF9 YEATS AND FLT3” (Bridge Medicines, priority 2022, published 2026).

Assays:
[1] = molecular target: T1, ENL YEATS domain (Homo sapiens, UniProt Q03111); test: TR-FRET ENL Screening Assay; conditions: 6×HIS ENL YEATS domain binding to biotinylated H3K9cr peptide (aa1-20)
T1 construct: ENL Protein (6×HIS ENL YEATS Domain, EpiCypher, 15-0069); purchased EpiCypher 15-0069
T1 sequence (Q03111 1-138 limits assumed): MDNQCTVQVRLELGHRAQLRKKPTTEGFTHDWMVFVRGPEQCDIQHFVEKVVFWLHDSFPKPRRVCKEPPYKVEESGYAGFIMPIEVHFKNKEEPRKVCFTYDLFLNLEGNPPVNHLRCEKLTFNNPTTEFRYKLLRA
Experimental: Compounds of the invention were tested in a TR-FRET ENL Screening Assay. TR-FRET (time-resolved fluorescence energy transfer) can be used to quantify ENL YEATS domain binding to a crotonylated histone peptide (H3K9cr, aa1-20). Streptavidin-Europium (Eu) chelate binds the biotinylated peptide, while Anti-6×HIS ULight™ binds 6×HIS-ENL. When Eu chelate is excited at 320 nm, fluorescence resonance energy transfer (FRET) occurs if Eu and ULight are made proximal by ENL binding to the acyl-peptide. ULight emission (FRET) is measured at 665 nm and normalized to the Eu emission at 615 nm to reduce variability between wells.
Compounds of the invention were dissolved in DMSO at a concentration of 3 mM with subsequent dilutions in assay buffer (50 mM HEPES PH 7.0, 150 mM NaCl, 0.05% BSA, 0.2% Pluronic F-127) such that the assay contained 1% DMSO. In a white 384 shallow well Microplate (Proxiplate-384 Plus, PerkinElmer, 6008280), 150 nL of compound or vehicle (1% DMSO in assay buffer) for the high control (HC) wells and 5 μL of 30 nM ENL Protein (6×HIS ENL YEATS Domain, EpiCypher, 15-0069) were combined and incubated 15 minutes at RT. Low control (LC) wells received 5 μL of assay buffer instead of ENL protein. Then 5 μL of 15 nM H3K9cr peptide (H3 aa1-20, biotinylated; EpiCypher, 12-0099) in assay buffer was added and incubated 30 minutes at RT. Finally, a 5 L mix of 45 nM Anti-6HIS ULight (PerkinElmer, TRF0105) and 1.5 nM Streptavidin-Europium Chelate (PerkinElmer, AD0060) were added and incubated for a further 30 minutes at RT. The TR-FRET signal (665 nm signal/615 nm signal×10,000) was measured using a PerkinElmer 2104 EnVision (Xenon Flash Lamp excitation, 320 nm±37.5 nm excitation filter, 407 nm cut off dichroic mirror, 615 nm±4.25 (Europium) nm and 665 nm+3.75 nM (ULight) emission filters). Compound concentration response curves were performed in duplicate over the concentration range of 0.15 nM-30 μM. The response at each compound concentration minus the LC value was converted to percent inhibition of the vehicle control group response (HC-LC).

[2] = test system: MV4:11 (MLL-AF4 MLL) cells; test: Cell viability assay (CellTiter-Glo), 12 days; assay type: cell-based; conditions: Homo sapiens, 288 h, MV4:11 cells, cells split on days 4 and 8, CellTiter-Glo readout, read-out: MV4:11, 12 Day IC50
Experimental: Cell-based assays were used to assess the ability of test compounds to reduce cell viability in both MV4:11 (MLL-AF4 MLL) and K562 cells, which were cultured in Iscove's Modified Dulbecco's medium (Gibco, 12440061) containing 10% FBS. The assays were conducted over 12 days and the cells being split on days 4 and 8. Compound concentration response curves were performed in duplicate over the concentration range of 0.15 nM-30 μM. On day 0, the compounds or vehicle were plated in a 300 nL directly into 96 well cell culture plates (Corning, 3599) with 5000 cells/well in a volume of 100 μL. Blank wells received cell culture medium. Plates were incubated for 4 days at 37° C. with 5% CO2. On days 4 and day 8 the cells were split and incubated for a further 4 days whilst an aliquot of cells were taken for the CTG readout. For the cell splitting, 270 nL of compounds or DMSO was added to a new 96 well cell culture plate to which 90 μL of medium plus 10 μL of cells from the original assay plate (after mixing) or 100 μL of medium (Blank wells) was added. This was repeated on day 8.
Cell viability was assessed using the CellTiter-Glo® homogeneous luminescent assay kit (Promega, G9243), according to the manufacturer's instructions. This quantifies ATP, which indicates the presence of metabolically active cells. On days 4, 8 and 12, 20 μl of the remaining cell suspension was aspirated into 384-well plate (Corning 3570) to which an equal volume CellTiter-Glo reagent was. Plates were incubated for 10 minute incubation at RT prior to recording the luminescence signal using EnVision plate reader (PE, 2104). The resulting data were analyzed as follows:
where vehicle are cells treated with 0.3% DMSO, Blank is culture medium. IC50 determinations were calculated by fitting the curve using XLfit (v5.3.1.3): Y=Bottom+(Top−Bottom)/(1+10^((Log IC50−X)*HillSlope)).

[3] = molecular target: T2, FLT3 (Homo sapiens, UniProt P36888); test: FLT3 Inhibition Assay; assay type: biochemical; conditions: FL Peptide 2 substrate, 30 min preincubation, 90 min at room temperature, Caliper EZ reader
T2 construct: purchased Carna 08-154
T2 sequence (P36888 27-993): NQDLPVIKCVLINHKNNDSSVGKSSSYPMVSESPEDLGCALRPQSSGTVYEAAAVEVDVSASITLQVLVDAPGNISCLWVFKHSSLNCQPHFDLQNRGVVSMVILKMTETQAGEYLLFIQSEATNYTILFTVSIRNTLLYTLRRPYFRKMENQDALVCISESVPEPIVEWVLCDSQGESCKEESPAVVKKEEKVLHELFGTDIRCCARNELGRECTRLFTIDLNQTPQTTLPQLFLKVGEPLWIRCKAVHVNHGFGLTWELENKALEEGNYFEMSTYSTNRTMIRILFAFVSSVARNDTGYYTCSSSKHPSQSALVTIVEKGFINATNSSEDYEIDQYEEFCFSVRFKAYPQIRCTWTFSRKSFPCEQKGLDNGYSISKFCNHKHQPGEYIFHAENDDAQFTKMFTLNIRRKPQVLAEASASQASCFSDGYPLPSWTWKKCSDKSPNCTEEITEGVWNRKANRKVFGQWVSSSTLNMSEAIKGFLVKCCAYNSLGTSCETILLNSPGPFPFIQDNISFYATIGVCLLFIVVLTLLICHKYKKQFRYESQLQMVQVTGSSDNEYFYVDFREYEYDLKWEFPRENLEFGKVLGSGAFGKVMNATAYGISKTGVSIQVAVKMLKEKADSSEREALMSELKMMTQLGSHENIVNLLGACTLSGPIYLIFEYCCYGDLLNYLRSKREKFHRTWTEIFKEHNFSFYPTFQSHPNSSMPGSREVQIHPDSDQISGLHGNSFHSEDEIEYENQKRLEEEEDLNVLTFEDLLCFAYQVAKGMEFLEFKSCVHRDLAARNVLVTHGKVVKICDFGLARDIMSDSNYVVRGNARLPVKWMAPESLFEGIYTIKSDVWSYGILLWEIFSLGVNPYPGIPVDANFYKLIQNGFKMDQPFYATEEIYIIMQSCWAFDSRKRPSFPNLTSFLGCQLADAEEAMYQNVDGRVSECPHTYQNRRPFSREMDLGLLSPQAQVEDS
Experimental: Starting with a 10 mM stock solution, each test compound was serially diluted into 10 concentrations by 3-fold dilution using TECAN EVO200. 60 nL of each stock was transferred to a 384 plate using Echo550.
Solution 1 was prepared as the table above and used to dilute the FLT3, ATP and FL2 stock to 0.9379 nM (1.33×), 400 μM (4×) and 6 μM (4×) respectively. The FLT3 solution (15 μL) at 25° C. was added to each well, shaken for 1 min and preincubated with test compound and controls for 30 min. To each well, 5 μL of ATP and FL-Peptide2 solutions, as prepared above, were added and the plate was shaken for 10 seconds, then spun briefly at 1000 rpm, then incubated for 90 minutes at room temperature. The plate was read on Caliper EZ reader, and the IC50 values were calculated using XLfit (equation below).
[formula] • LumSample: Test compound signal • LumLC: Low control signal • LumHC: High control signal

Compound | IC50 [1] | IC50 [2] | IC50 [3]
CN1CCCC[C@@H]1c1cc2cnc(NC(=O)c3ccc(-c4cn[nH]c4)cc3)cc2[nH]1 [Example 6, (R)-N-(2-(1-methylpiperidin-2-yl)-1H-pyrrolo[3,2-c]pyridin-6-yl)-4-(1H-pyrazol-4-yl)benzamide] | 64 nM | 138 nM | –
COCc1n[nH]cc1-c1ccc(C(=O)Nc2cc3[nH]c([C@H]4CCCN4C)cc3cn2)cc1 [Example 8, (R)-4-(5-(methoxymethyl)-1H-pyrazol-4-yl)-N-(2-(1-methylpyrrolidin-2-yl)-1H-pyrrolo[3,2-c]pyridin-6-yl)benzamide] | 179 nM | 357 nM | –
CN1CCC[C@@H]1c1cc2cnc(NC(=O)c3ccc(-c4c[nH]nc4F)cc3)cc2[nH]1 [Example 9, (R)-4-(5-fluoro-1H-pyrazol-4-yl)-N-(2-(1-methylpyrrolidin-2-yl)-1H-pyrrolo[3,2-c]pyridin-6-yl)benzamide] | 73 nM | 176 nM | –
CN1CCC[C@@H]1c1cc2cnc(NC(=O)c3ccc(-c4cn[nH]c4)cc3F)cc2[nH]1 [Example 4, (R)-2-fluoro-N-(2-(1-methylpyrrolidin-2-yl)-1H-pyrrolo[3,2-c]pyridin-6-yl)-4-(1H-pyrazol-4-yl)benzamide] | 67 nM | 119 nM | –

Now those with a lower IC50 [2], led by results:

IC50 [1] | IC50 [2] | IC50 [3] | Compound
– | 83 nM | 13 nM | CN1CCC[C@H]1c1cc2cnc(NC(=O)c3ccc(-c4cn[nH]c4)cn3)cc2[nH]1 [Example 3, (S)-N-(2-(1-methylpyrrolidin-2-yl)-1H-pyrrolo[3,2-c]pyridin-6-yl)-5-(1H-pyrazol-4-yl)picolinamide]
46 nM | 79 nM | 274 nM | CN1CCC[C@@H]1c1cc2cnc(NC(=O)c3ccc(-c4cn[nH]c4)cc3)cc2[nH]1 [Example 5, (R)-N-(2-(1-methylpyrrolidin-2-yl)-1H-pyrrolo[3,2-c]pyridin-6-yl)-4-(1H-pyrazol-4-yl)benzamide]
– | 40 nM | 7 nM | Cc1cc2cnc(NC(=O)c3ccc(-c4cn[nH]c4)cn3)cc2[nH]1 [Example 1, N-(2-methyl-1H-pyrrolo[3,2-c]pyridin-6-yl)-5-(1H-pyrazol-4-yl)picolinamide]
– | 36 nM | – | CN1CCCC[C@@H]1c1cc2cnc(NC(=O)c3ccc(-c4cn[nH]c4)cn3)cc2[nH]1 [Example 7, (R)-N-(2-(1-methylpiperidin-2-yl)-1H-pyrrolo[3,2-c]pyridin-6-yl)-5-(1H-pyrazol-4-yl)picolinamide]
– | 19 nM | 7 nM | CN1CCC[C@@H]1c1cc2cnc(NC(=O)c3ccc(-c4cn[nH]c4)cn3)cc2[nH]1 [Example 2, (R)-N-(2-(1-methylpyrrolidin-2-yl)-1H-pyrrolo[3,2-c]pyridin-6-yl)-5-(1H-pyrazol-4-yl)picolinamide]
